The values that follow come from patent US20260364030A1, “NOVEL SELECTIVE INHIBITORS OF LYSYL OXIDASES” (Syntara Limited, priority 2022, published 2026).

The conditions of data set [1]: human patients with scleroderma; cited from earlier work.
Another data set deals with T1, LOXL1 (Homo sapiens, UniProt Q08397).
T1 sequence (Q08397 96-574): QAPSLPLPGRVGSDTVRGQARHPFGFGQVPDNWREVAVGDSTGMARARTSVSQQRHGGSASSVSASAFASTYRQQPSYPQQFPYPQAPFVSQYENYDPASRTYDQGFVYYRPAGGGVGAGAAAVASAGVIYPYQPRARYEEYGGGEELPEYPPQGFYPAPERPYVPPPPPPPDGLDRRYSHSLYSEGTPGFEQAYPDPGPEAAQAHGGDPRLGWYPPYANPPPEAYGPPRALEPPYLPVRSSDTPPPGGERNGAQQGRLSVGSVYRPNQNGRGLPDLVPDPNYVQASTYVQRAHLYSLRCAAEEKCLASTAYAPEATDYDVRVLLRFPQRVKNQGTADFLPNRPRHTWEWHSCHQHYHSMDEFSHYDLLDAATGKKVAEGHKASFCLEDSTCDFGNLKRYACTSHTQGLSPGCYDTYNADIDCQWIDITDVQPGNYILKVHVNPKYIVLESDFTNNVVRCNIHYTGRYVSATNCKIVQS
Put plainly: LOXL1 inhibition, Amplex Red oxidation assay. Type of data set: biochemical. Conditions: 30 min incubation with enzyme at 37 °C. The procedure:
LOX and LOXL protein family members can be acquired as recombinant active proteins from commercial sources, or extracted from animal tissues like bovine aorta, tendons, pig skin; or prepared from cell cultures. The inhibitory effects of the compounds of the present invention were tested against the given LOX or LOXL preparation using a method based on the detection of hydrogen peroxide with an Amplex Red oxidation assay [Zhou et al, 1997]. The assay was developed using either 384 or 96 well format. Briefly, in a standard black, clear bottom 384 well plate assay 25 µL of a dilution of any of the isoenzymes and orthologues in 1.2 M urea, 50 mM sodium borate buffer (pH 8.2) were added into each well in the presence of […] and 0.5 mM pargyline (to inhibit SSAO and MAO-B and MAO-A, respectively; not necessary if the enzyme is from a recombinant or purified form). Test compounds were dissolved in DMSO and tested in a Concentration Response Curve (CRC) with 11 data points, typically in the micromolar or nanomolar range after incubation with the enzyme for 30 min at 37 °C. […] The fluorescence (RFU) was read every 2.5 min for 30 min at 37 °C, excitation 544 nm and emission 590 (Optima; BMG labtech). The slope/min of the kinetics for each well was calculated using MARS data analysis software (BMG labtech) and this value was used to deduce the IC50 value (Dotmatics). […]

A further data set deals with skin fibrosis. Put plainly: Mouse model of sclerosis (bleomycin-induced skin fibrosis). Type of data set: in vivo, male C57BL/6 mouse. Particulars: topical formulation, various concentrations, from day 3; histology after 21 days; FIG. 3, ****=P≤0.0001. The protocol:
Subcutaneous bleomycin (0.1 U/kg) was administered every second day (for 21 days total) to male C57BL/6 to induce skin fibrosis as a model of sclerosis. The lesions were treated, from day 3, with either Vehicle or various concentrations of Compound 1 in a topical formulation. Histology was completed after 21 days.

A further data set addresses T2, Human MAO-B (Homo sapiens, UniProt P27338).
T2 construct: purchased Sigma Aldrich
Put plainly: Inhibition of human recombinant MAO-B. Type of data set: biochemical. Particulars: substrate benzylamine 100 μM.

For data set [2], the system named is SSAO/VAP-1, MAO-B, MAO-A and DAO. The data set is described as follows: Selectivity with respect to other amine oxidases. Type of data set: biochemical, human. The protocol: Human recombinant SSAO/VAP-1 amine oxidase activity was determined using the coupled colorimetric method as described for monoamine oxidase, copper-containing amine oxidases and related enzymes [Holt A. and Palcic M., 2006]. Briefly, a cloned cDNA template corresponding to residues 34-763 of human SSAO/VAP-1, and incorporating a mouse Ig kappa (κ) signal sequence, N-terminal flag epitope tag and tobacco etch virus (TEV) cleavage site, was assembled in a mammalian expression vector (pLO-CMV) by Geneart AG. This vector containing human SSAO/VAP-1 residues was transfected into CHO-K1 glycosylation mutant cell line, Lee 8. A clone stably expressing human SSAO/VAP-1 was isolated and cultured in large scale. Active human SSAO/VAP-1 was purified and recovered using immunoaffinity chromatography. This was used as the source for SSAO/VAP-1 activity. A high-throughput fluorescent assay was developed using either 96 or 384 well format. Briefly, in a standard 384 well plate assay 25 μL of purified human SSAO/VAP-1 (0.25 μg/mL) in 0.1 M sodium phophate buffer (pH 7.4) was added into each well. […] The fluorescence unit (RFU) was read every 2.5 min for 30 min at 37 °C excitation 544 nm and emission 590 (Optima; BMG labtech). The slope/min of the kinetics for each well was calculated using MARS data analysis software (BMG labtech) and this value was used to deduce the IC50 value (Dotmatics). […]

T2 sequence (P27338 whole entry): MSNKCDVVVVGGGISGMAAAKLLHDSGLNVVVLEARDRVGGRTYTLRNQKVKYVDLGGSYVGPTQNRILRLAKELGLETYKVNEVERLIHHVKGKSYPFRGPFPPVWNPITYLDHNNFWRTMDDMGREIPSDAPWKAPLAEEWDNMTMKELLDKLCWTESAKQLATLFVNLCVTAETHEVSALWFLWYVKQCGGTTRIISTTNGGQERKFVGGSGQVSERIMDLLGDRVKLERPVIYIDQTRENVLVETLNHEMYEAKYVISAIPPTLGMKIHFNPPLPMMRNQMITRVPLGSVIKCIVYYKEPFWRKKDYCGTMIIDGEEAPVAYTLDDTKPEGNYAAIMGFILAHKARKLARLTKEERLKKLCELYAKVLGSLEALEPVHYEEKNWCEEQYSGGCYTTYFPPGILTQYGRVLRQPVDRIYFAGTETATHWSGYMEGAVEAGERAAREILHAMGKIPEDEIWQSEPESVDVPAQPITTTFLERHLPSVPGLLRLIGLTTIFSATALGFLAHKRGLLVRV

For orientation: IC50 means the midpoint of a concentration-inhibition curve. Turning to `N#CCCN` [BAPN, β-aminopropionitrile, reference compound], in data set [1], the Tolerability entry is on record as “poorly tolerated”. For the same molecule, the IC50 at LOXL1 stood at 2.5 µM.

On to `NC/C(=C\F)CS(=O)(=O)c1ccccc1` [Compound 1, (E)-3-fluoro-2-((phenylsulfonyl)methyl)prop-2-en-1-amine], for which the “Average collagen score (histology)” value in the data set with skin fibrosis was “significant improvement in the average collagen score”. For the same molecule, the concentration for half-maximal inhibition (IC50) at LOXL1 was 13.2 µM; at Human MAO-B, above 30 µM. Moreover, the “Selectivity for LOX family with respect to SSAO/VAP-1, MAO-B, MAO-A and DAO” value in data set [2] was “selectively inhibit members of the LOX family of enzymes”.
